Source: US20070197432A1, “Peptides for preventing, diagnosing and treating animal and/or human leptospirosis” (priority 2002, published 2007)
No end group written: not given here.

Tests used:
[1] = tested on: Leptospira interrogans sl serovar canicola; assay: Trial 1: gerbils immunized with PP-KLH, 10^−2.5 canicola challenge; format: in vivo, gerbil
Protocol: An immunization/challenge protocol was carried out in order to evaluate the protection that can be provided by the PP peptide (SEQ ID No. 1) coupled to the KLH protein.
This construct is administered subcutaneously without adjuvant, with PBS as a negative control (batch 2).
Batch 1: 10 gerbils, 2 injections of 30 μg of PP-KLH in 300 μl, subcutaneously.
Batch 2: 10 gerbils, 2 injections of PBS in 300 μl.
The two injections in a volume of 300 μl were administered subcutaneously, two weeks apart. A challenge by intraperitoneal injection of 0.5 ml of a canicola culture with a titer of 90 to 100 TU (turbidimetry) diluted to 10^−2.5 was administered two weeks after the second injection. • Antigenic response: Monitoring by ELISA of the immune response of the gerbils against the PP peptide

PP peptide = assay: Immunization of mice with PP peptide coupled to KLH, anti-PP IgG1/IgG2A ELISA; format: in vivo
Protocol: A batch of 5 mice was formed. Two injections were administered subcutaneously, two weeks apart. The 1st injection consists of 10 μg of PP peptide coupled to KLH, with complete Freund's adjuvant, in a volume of 200 μl (v/v). The 2nd injection consists of 10 μg of PP peptide coupled to KLH, with incomplete Freund's adjuvant, in a volume of 200 μl (v/v). This trial was carried out twice.
In parallel, a batch of 5 mice given nothing is used as a control.
A blood sample was taken two weeks after the second injection for serological monitoring.
The anti-PP antibodies produced in the mice are titered by means of an ELISA technique either on individual serological samples or on pools of several sera. The PP antigen is adsorbed in Immulon 4 plates (Dynatech) at a rate of 500 ng of PP per well diluted in 10 mM sodium carbonate buffer, pH=9.4.
After an overnight period at 4° C., the plates are washed with PBS containing 0.2% tween20, and then saturated with a solution of 1% BSA in TNE (50 mM Tris, 150 mM NaCl, 1 mM EDTA, pH 7.4) for 60 min at 37° C. […] The colored reaction is read in a spectrophotometer at 405 nm.
The results of the anti-PP IgG1 antibody response, expressed as corrected OD, of the immunization trials 1 and 2 with the PP peptide coupled to KLH are given in FIG. 1. […]

[2] = tested on: Leptospira interrogans sl serovar canicola; assay: Dogs immunized with PP-KLH, canicola challenge: cultures of plasma, urine and kidney samples; format: in vivo, dog

PP-KLH: PP peptide with cysteine added at the N-terminal position, coupled via sulfo-MBS to KLH carrier protein (keyhole limpet hemocyanin) (KAKPVQKLDDDDDGDDTYKEERHNK; not fully specified (N-terminus))
Mortality rate ([1]; 10^−2.5 canicola challenge): 6/10
Survival rate ([1]; 10^−2.5 canicola challenge): 4/10
gerbils alive ([1]; 10^−2.5 canicola challenge, D4): 10
gerbils alive ([1]; 10^−2.5 canicola challenge, D5): 10
gerbils alive ([1]; 10^−2.5 canicola challenge, D6): 7
gerbils alive ([1]; 10^−2.5 canicola challenge, D7): 5
gerbils alive ([1]; 10^−2.5 canicola challenge, D8): 4
gerbils alive ([1]; 10^−2.5 canicola challenge, D9): 4
gerbils alive ([1]; 10^−2.5 canicola challenge, D10): 4
gerbils alive ([1]; 10^−2.5 canicola challenge, D11): 4
gerbils alive ([1]; 10^−2.5 canicola challenge, D30): 4
gerbils alive ([1]; 10^−2.5 canicola challenge, before challenge): 10
gerbils alive ([1]; 10^−2.5 canicola challenge, day of challenge): 10
Survival rate ([1]; 10^−2.5 canicola challenge, listed as PP peptide coupled to the KLH protein): 4 of the 10
p, log-rank test versus control ([1]; Experiment 1, survival): <7.10^−2
immunogenicity (PP peptide): very immunogenic
anti-PP IgG2A antibody response (PP peptide; 2 s.c. injections of 10 μg with Freund's adjuvant): high but less substantial than the anti-PP IgG1 response
positive cultures/dogs ([2]; Kidneys, D41): 5/6
positive cultures/dogs ([2]; Urine, D7): 3/6
